How the values were obtained:
[1] = Aqueous stability in simulated gastric fluid; assay type: physicochemical; settings: 37 °C
[2] = Plasma stability, human plasma; assay type: in vitro ADME; settings: female, pooled plasma
[3] = Plasma stability, rat plasma; assay type: in vitro ADME; settings: female, Sprague-Dawley, pooled plasma
[4] = Plasma stability, mouse plasma; assay type: in vitro ADME; settings: female, CD-1, mouse, pooled plasma
Caco-2 cells = settings: cited from earlier work
[5] = in vivo, cited from earlier work

In the case of `CCCCCCCCCCCC(=O)O[C@H]1[C@@H](F)[C@H](n2cnc3c(N)ncnc32)O[C@@H]1CNS(=O)(=O)NC(=O)c1ccccc1O.CCN(CC)CC` [Compound 8, 9-[2,5-Dideoxy-3-O-(dodecanoyl)-2-fluoro-5-{N-(N-2-hydroxybenzoyl)sulfamoyl}amino-β-D-ribofuranosyl]adenine Triethylammonium Salt], the “Chemical hydrolysis to release the parent drug 2” value ([1]; pH 1.2, 2 h) is reported as “not observed”.
Work on `Nc1ncnc2c1ncn2[C@@H]1O[C@H](CNS(=O)(=O)NC(=O)c2ccccc2O)[C@@H](O)[C@H]1F` [Compound 2] yielded a remaining at 6 h, 200 µM [2] of 100%, a remaining at 6 h, 200 µM [3] of 100% and a remaining at 6 h, 200 µM [4] of 100%. The “Caco-2 permeability relative to 1” value (Caco-2 cells) was 3.5 fold, the Efflux ratio (Caco-2 cells) was 0.3 and the “Papp AP-BL” value (Caco-2 cells) was 4.2e-06 cm/s. The “Papp BL-AP” value (Caco-2 cells) was 1.3e-06 cm/s, the “Oral exposure relative to 1” value ([5]; po) was 3 fold and the “Clearance relative to 1” value [5] was 3 fold.
With `CC(=O)O[C@H]1[C@@H](F)[C@H](n2cnc3c(N)ncnc32)O[C@@H]1CNS(=O)(=O)NC(=O)c1ccccc1O.CCN(CC)CC` [Compound 3, 9-[3-O-(Acetyl)-2,5-dideoxy-2-fluoro-5-{N-(N-2-hydroxybenzoyl)sulfamoyl}amino-β-D-ribofuranosyl]adenine Triethylammonium Salt] the “% hydrolyzed to parent drug 2” value ([1]; pH 7.4, 2 h) was 8%.

From PMC4769951 (Bioorganic & medicinal chemistry, 2016)
